# Reference: patent US11925623B2 (priority 2020, dated 2024)
# “Also recorded” adds a separate entry of the source.
# Key:
# [1] = Tolerability in i.c.v Aβ1-42 injected nontransgenic mice; assay type: in vivo, C57/BL6 mice
# Description: (§1) Eight-week old Wild type C57/BL6 mice were treated i.p. with sulfanegen at 50 and 100 mg/kg dose during the entire duration of experiment. The mice were injected with intracerebroventricular (i.c.v) Aβ1-42 on day 3 after initiation of drug treatment (1 nmol/mouse). Behavioral test (T-maze) was conducted 6 days after Aβ1-42 injection, which was followed by euthanization on day 8. Biochemical analysis of the collected brain tissues was conducted using ELISA method for quantitation of Aβ1-42, and immunohistochemical analysis for GFAP (inflammatory marker). The brain tissues were also analyzed for oxidative stress markers (GSH assay, see Example 5; and protein carbonyls, see Example 6). • Groups: • Saline control N=12, (N=5 study 2; N=7 study 3) • Abeta control N=15, (N=7 study 2; N=8 study 3) • Sulfanegen, 50 mg/kg, N=7 • Sulfanegen, 100 mg/kg, N=7
# [2] = tested on: i.c.v Aβ1-42 injected nontransgenic mice; assay: T-maze spontaneous alternation in i.c.v Aβ1-42 injected mice; assay type: in vivo, C57/BL6 mice
# Description: as §1
# Spontaneous alternation in a T-maze was used to assess working memory abilities, based on the innate tendency of mice to alternate their choice of a goal arm based on their recall of the initial choice. The T-maze used was made of black plexiglass as per dimensions stated in Nat Protocol, 2006 [PMID: 17406205, www.nature.com/articles/nprot.2006.2]. Mice were placed in the start arm with the central divider in place so that when entering either of the goal arms the mice were not able to see the other one. The mice were allowed to move freely in the whole hall, and then, after being confined to the start arm for 30 seconds, the animal was allowed to move freely for a total of 15 arm entrees. […] The alternation percentage was calculated by dividing the number of times the animal entered alternating arms by 14 (free-choice trials). […] Ratio of right and left arm entries was calculated to determine spatial preference of mice in different treatment groups. The data were analyzed using repeated measures analysis of variance (ANOVA) using Dunnett test.
# [3] = tested on: SH-SY-5Y cells; assay: In vitro amyloid toxicity protection assay (CCK-8); assay type: cell-based
# Description: SH-SY-5Y cells were seeded at a density of 20000/well in a 96-well plate and incubated overnight at 37° C. Following day, cells were treated with media according to their respective treatment group in triplicate. Vehicle-only treated cells are used as control groups. […] On day 3, Cells were incubated with media containing CCK-8 (<10%). After 3 hours of incubation, the absorbance is measured at 450 nm (reference wavelength 600 nm) using Me5 plate reader (Spectramax). The final volume in a well is kept at 100 μL CCK-8 (CK04, Dojindo labs) in this assay.
# [4] = tested on: TNFα; assay: TNFα ELISA of brain tissue, i.c.v Aβ1-42 mice; assay type: in vivo, C57/BL6 mice; conditions: 50 and 100 mg/kg i.p.; no difference between doses
# Description: as §1
# (§2) TNFα ELISA kit (BMS607HS, invitrogen) was used. Brain tissue samples were assayed in duplicate. Briefly, the strips provided in the kit were washed with 400 μL wash buffer (lx) twice. 50 μL of brain homogenates or standards were added to 50 μL sample diluent (PBS) in each well. […] The samples were read at 450 nm. Quantification of TNFα in each well was conducted using the standard curve and was normalized to the weight of brain tissue.
# [5] = tested on: protein carbonyls; assay: Protein carbonyl assay, i.c.v Abeta mouse model; assay type: in vivo, C57/BL6 mice
# Description: as §1
# The protein carbonyl content is used as a marker of protein oxidation in the i.c.v Abeta mouse model (see Example 1). The amount of protein-hydrozone produced is quantified spectrophotometrically by Protein Carbonyl Colorimetric assay kit (Cayman Chemical, Ann Arbor, MI). 100 μl of sample was transferred into two tubes, one containing 400 μl of DNPH and the other tube containing 400 μl of 2.5 M HCl. […] The absorbance was measured at 385 nm using Spectra Max M5 microplate reader. […]
# [6] = tested on: GSH; assay: Brain glutathione (GSH) and GSSG level, i.c.v Abeta mouse model; assay type: in vivo, C57/BL6 mice
# Description: as §1
# The brain GSH and GSSG level were measured with Glutathione assay kit (Cayman Chemical, Ann Arbor, MI) using the i.c.v Abeta mouse model (see Example 1). A total of 50 μl of sample was added to each well, and 150 μl the assay cocktail (MES buffer, reconstituted cofactor mixture, enzyme mixture, water, and DTNB) were added to the wells. The absorbance was measured at 414 nm using Spectra Max M5 microplate reader. Assay range was calculated under the standard curve (0-16 μM GSH or 0-8 μM GSSG). Results were expressed as nmol/mg protein and ratio of GSH/GSSG. Total GSH levels were higher in sulfanegen treated groups at both doses 50 mg/Kg and 100 mg/Kg. […] Reduced GSH levels were slightly lower in […] but not statistically significant.
# The brain tissue for biochemical analysis was rapidly homogenized in these buffers 1) TBS (20 mM Tris-HCl and 150 mM NaCl) buffer with protease inhibitors and 5 M Guanidine-HCl in 50 mM Tris-HCl buffer for Aβ1-42 ELISA assay (FIG. 11, see Example 11 below), 2) 50 mM IVIES buffer for GSH (FIG. 8C, see Example 5) and Protein Carbonyl assay (FIG. 8B, see Example 6), 3) RIPA buffer with protease inhibitors for TBARS assay (FIG. 8A, see Example 7). […]
# [7] = tested on: H2S; assay: Zn-agar entrapment H2S measurement in cell culture; assay type: cell-based
# Description: To sterilized agar solution (1% w/v) was added 45 mM Zn Acetate and 4.5 mM NaOH (both prepared in sterile water). The solution was then applied to the non-adherent surface of the empty flasks and allowed to solidify. Cells were seeded in T-25 flask at 1 million cells/flask overnight. Cells were treated with sulfanegen at 0-500 μM concentrations and incubated for 6 hours. After the incubation period, the media was removed and 2 ml N,N-dimethyl-p-phenylenediamine chloride was added to the agar layer and incubated at RT for 10 mins. This was followed by addition of 400 μL of ferrous chloride and incubation for 20 minutes. The solution was then aliquoted into 96-well plate and absorbance was measured at 670 nm. The release of H2S was measured using a standard curve generated with NaSH under similar experimental conditions (incubation with NaSH was done for 1 hr).
# [8] = Oral bioavailability: plasma levels after i.v. and p.o. dosing (LC-MS/MS); assay type: in vivo; conditions: mouse
# Description: (§3) To ascertain the distribution of sulfanegen to the brain, plasma and brain samples were harvested from intraperitoneally treated animal groups and analyzed via LC-MS/MS. A saline solution of sulfanegen was injected into the mouse peritoneum at a dose of 50 mg/kg. Specifically, samples were collected at 0.25, 0.5, 1, 2, and 4 h after the drug administration. […] Samples were immediately centrifuged at 3000 rpm for 10 min at 4° C., and the separated top plasma layer was transferred into a new tube. Blood samples were stored at −80° C. until LC-MS/MS analysis. For brain samples, brain tissue was extracted from the animal and washed with copious volumes of ice-cold D-PBS for removal of blood from the sample. The brain samples were homogenized by adding 1:5 (w/v) of ice-cold D-PBS into the tube and using a mechanical homogenizer on them. Homogenized brain samples were stored at −80° C.
# Similar experimental design was used for determination of oral bioavailability of sulfanegen (Table 2). Plasma samples were collected after intravenous and oral administration of the compound and concentration of sulfanegen in these samples was determined using LC-MS/MS analysis.
# [9] = tested on: APP/PS1 transgenic mice; assay: T-maze cognitive assessment in APP/PS1 transgenic mice; assay type: in vivo; conditions: 75 mg/kg i.p. for 12 weeks; 7 and 12 month cohorts
# From the text: Spontaneous alternation in a T-maze was used to assess working memory abilities, based on the innate tendency of mice to alternate their choice of a goal arm based on their recall of the initial choice. The T-maze used was made of black plexiglass as per dimensions stated in Nat Protocol, 2006 [PMID: 17406205, www.nature.com/articles/nprot.2006.2]. Mice were placed in the start arm with the central divider in place so that when entering either of the goal arms the mice were not able to see the other one. The mice were allowed to move freely in the whole hall, and then, after being confined to the start arm for 30 seconds, the animal was allowed to move freely for a total of 15 arm entrees. […] The alternation percentage was calculated by dividing the number of times the animal entered alternating arms by 14 (free-choice trials). An arm entry is defined as the animal's tail tip entering the arm and repetitive arm entries as an animal re-entering the same arm three times in a row (e.g., 5 sequential entries into the same arm is 3 repetitive entries). Ratio of right and left arm entries was calculated to determine spatial preference of mice in different treatment groups. The data were analyzed using repeated measures analysis of variance (ANOVA) using Dunnett test. […]
# [10] = Brain permeability: brain and plasma levels after i.p. dosing (LC-MS/MS); assay type: in vivo, mouse; conditions: 50 mg/kg i.p.
# Description: as §3
# [11] = tested on: IL-6; assay: IL-6 ELISA of brain tissue, i.c.v Aβ1-42 mice; assay type: in vivo, C57/BL6 mice
# Description: as §1
# as §2, with “IL-6” for “TNFα”, “(BMS603HS,” for “kit (BMS607HS,”, “nm (reference wavelength 620 nm).” for “nm.”
# [12] = tested on: TBARS (lipid peroxidation); assay: Lipid peroxidation (TBARS) assay, i.c.v Abeta mouse model; assay type: in vivo, C57/BL6 mice; conditions: 50 and 100 mg/Kg
# Description: as §1
# The extent of lipid peroxidation, in the i.c.v Abeta mouse model (see Example 1), was correlated to the levels of thiobarbituric (TBA) acid-reactive entities (TBARS assay). Homogenized brains were exposed to TBA-trichloroacetic acid (TCA)-chloridic acid reagent (HCl; 0.37% TBA, 0.25 N HCl, and 15% TCA) (1:1:1, 2 mL) and incubated for 15 minutes at […]. […] Total protein was determined through the BCA protein assay. […]
compound,measurement,setting,value
O=C(O)C1(O)CSC(O)(C(=O)O)CS1 (stereo not drawn) [sulfanegen],tolerability,[1]; 50 mg/kg i.p.,well tolerated
same,mice that died during the experiment,[1]; 100 mg/kg i.p.,Two mice (out of 7)
same,toxicity: liver and kidney enzymes,"[1]; 100 mg/kg, total N=8/group",elevations in liver and kidney enzymes in 2 animals
same,body weights,"[1]; 50 and 100 mg/kg i.p., compared to Aβ1-42-only control group",No marked decrease or increase in weights
same,other signs of distress,[1]; both tested doses (50 and 100 mg/kg i.p.),No other signs of distress
same,cognitive behavior / cognitive impairment by T-maze,[2]; 50 and 100 mg/kg i.p.,marked improvement; also recorded: prevented cognitive impairment
same,T-maze alternation and repetition behavior,"[2]; 50 and 100 mg/kg i.p., 6 days after Aβ1-42 injection",significant improvement
same,spatial bias or anxiety-like behavior in T-maze,[2]; i.p. sulfanegen-treated mice,did not exhibit spatial bias or anxiety-like behavior
same,protection against Aβ1-42 reduction in cell viability,"[3]; SH-SY-5Y, 20 μM Aβ1-42, CCK-8",prevented; also recorded: high protective effect
same,cell growth,"[3]; SH-SY-5Y, with 20 μM Aβ1-42","increase in cell growth, even above the control levels"
same,dose above which protective effect appears saturated,[3]; no difference at higher 500 μM dose,above 350 μM
same,brain TNFα level,[4],significant decrease; also recorded: significant difference
same,protein carbonyl levels in brain,[5]; 50 mg/kg,significantly reduced
same,protein carbonyl levels (legend of FIGS. 8A-8C),[5]; 50 or 100 mg/Kg,significantly reduced
same,total GSH levels in brain,[6]; 50 mg/Kg and 100 mg/Kg,higher
same,reduced GSH levels in brain,"[6]; 100 mg/Kg, compared to both vehicle and amyloid beta treatment",significantly higher
same,GSH level as oxidative stress marker (legend of FIGS. 8A-8C),[6]; 50 or 100 mg/Kg,significantly reduced
same,H2S release,"[7]; 500 μM as compared to 250 μM, 6 h",decrease
same,H2S release,"[7]; up to 250 μM at 6 h, vs vehicle control",dose-dependent increase
same,AUC,"[8]; iv, 10 mg/kg, read-out: AUC, plasma, i.v.",32.6 µM·h
same,bioavailability,"[8]; oral, p.o. 50 mg/kg vs i.v. 10 mg/kg",15.1%
same,AUC,"[8]; po, 50 mg/kg, read-out: AUC, plasma, p.o.",24.6 µM·h
same,cognitive function (T-maze spontaneous alternation),[9],improved cognitive function
same,crossing of the blood brain barrier (BBB),[10],able to cross the blood brain barrier
same,"AUC, brain",[10]; samples 0.25-4 h,51.495 µM·h
same,Kp,"[10]; mouse, brain/plasma, intraperitoneal, read-out: B/P Ratio (Brain-Plasma ratio)",0.751
same,AUC,"[10]; mouse, plasma, ip, samples 0.25-4 h",68.6 µM·h
same,brain IL-6 level,[11]; 50 mg/kg i.p.,reduction of increased IL-6 levels; also recorded: significant difference
same,brain IL-6 level,[11]; 100 mg/kg i.p.,Increase in IL-6
same,TBARS (lipid peroxidation) levels in brain,[12],significantly reduced
